Assay results as given in US9862713B2, “Substituted bicyclic heteroaryl compounds as RXR agonists” (CONNEXIOS LIFE SCIENCES PVT. LTD., priority 2014, dated 2018).

Key:
MIA PaCa-2 cells [1] = assay: ROS level (DCFH-DA probe) in MIA PaCa-2 cells; type: cell-based; conditions: 4 days treatment
Description: To assess the impact of Compound 40 on ROS level, the cells were exposed to ROS indicator probe (DCFH-DA) for 1 h. ROS induced increase in DCF fluorescence was estimated at 485 nm excitation and 528 nm emission. ROS levels were normalized to cellular DNA levels which were measured by using bis-benzamide fluorescence at 360 nm excitation and 460 nm emission. The ROS levels are represented at % of control. […] Over-expression of RXRa further augmented the ROS levels.

MIA PaCa-2 cells [2] = assay: MIA PaCa-2 cell growth (cell count); type: cell-based; conditions: 0.1 uM and higher (up to 10.0 uM); day 2, 4 and 6
Description: Cancer is characterized by uncontrolled cell growth. Any agent which can reduce the cellular growth will have high therapeutic potentials. […] MIA PaCa-2 cells (ATCC) were seeded in a 6-well plate (20,000 cells per well) in DMEM containing 25 mM glucose, 10% FBS, 2.5% horse serum in presence or absence of different concentrations of compound-40 as mentioned. Cells were harvested on day 2, day 4 and day 6, and cell numbers were measured. MIA PaCa-2 cells were grown with or without different concentrations of compound-40 (0.0, 0.1, 0.3, 1.0, 3.0 and 10.0 uM) and cell growth was measured by cell count at different time points (day 2, 4 and 6).

male Syrian Hamsters = assay: High cholesterol diet induced hyperlipidaemia in hamsters; type: in vivo; conditions: 10 mg/kg b.wt, 8-12 weeks
Description: Eight to ten week old male Syrian Hamsters were housed in polypropylene cages provided with sterile paddy husk as bedding material. The animals were maintained at temperature 22±3° C., relative humidity 50-70%, 15-18 air cycle changes with 12 h dark and light cycle. The animals were provided with rodent feed (ad libitum) supplied by harlan laboratories to normal control animals and treatment groups were fed with High Cholesterol diet, prepared in-house by mixing 11.5% coconut oil, 11.5% corn oil, 0.5% cholesterol, and 0.25% deoxycholate in chow diet. Bisleri water (ad libitum) was provided. The animals were randomized based on body weight and divided into control and treatment groups. Compound 40 was administered, at a dose of 10 mg/kg b.wt, for a period of 8-12 weeks to the treatment group. Daily feed consumption, weekly body weight, total cholesterol and triglyceride levels were estimated.

male ZDF rats = assay: Effect of RXR agonist on male ZDF rats; type: in vivo; conditions: 10 mg/kg, BID, po
Description: Five week old male ZDF rats from Charles River & age matched control rats were housed under temperature 22±3° C., relative humidity 50-70%, 12 hour light and 12 hour dark cycle with artificial fluorescent tubes. The animals were housed in a group of 3 in standard polypropylene cages with stainless steel top grill having facilities for pelleted food and drinking water in bottle. The animals were fed with normal chow diet (Provomi), Bisleri, commercially available mineral drinking water was provided ad libitum. The lean control and the male […] rats were randomized to either vehicle or drug (Compound 40, 10 mg/kg, BID, po) treatment groups by body weight, fed glucose and glucose. The treatment was continued for 8 weeks. Body weight, fasting and fed glucose and fast triglycerides (tail snip) were monitored weekly. At the end of week 8 of the treatment, glucose and insulin HbAlc levels were followed at different time intervals. Blood samples collected from tail nipping method HbAlc levels by DCA vantage (SIEMENS).
Measurement of Nerve conduction velocity: Nerve conduction velocity was measured using Electronic stimulator connected to AD Power Lab 8/30, AD instruments. Briefly animals were anaesthetized and three different electrodes (+ve, −ve and neutral) were connected from Bio amp to animal. +ve electrode was placed on front side of fourth finger on hind paw, −ve electrode was placed just above +ve electrode at a distance of 10 mm and neutral electrode was placed on abdomen region. Voltage at a rate of 5 mv with pulse width of 0.001 sec was provided on two different regions at a distance of 1 cm on sciatic nerve. Nerve conduction was recorded using Lab chart software in scope view panel. Latencies at two different points were measured by taking the mouse cursor at the beginning of peaks. […] Measurement of Hemodynamic Parameters by Using Millar MPVS System:
At the end of 22 weeks of treatment period animal were subjected to hemodynamic measurement using Millar MPVS system, briefly animal was anesthetized using urethane and all surgical procedure was done on thermal plate, both jugular vein and carotid artery was cannulated in which jugular vein was used for saline calibration whereas rat millar Cather was introduced into left ventricle through carotid artery was be used for recording the Pressure volume loop. Blood was withdrawn from the tail vein puncture by pricking with needle into pre-filled EDTA tubes, mix and placed on ice immediately, centrifuge at 10000 rpm for 10 minutes using cold centrifuge. The plasma separated was subjected for estimation of ANP, BNP, Osteprotegerin Using USCN kit and Serum urea and BUN using Robonik kit.

astrocytes = assay: Astrocytes treated with PMA and LPS: ROS levels and inflammation markers; type: cell-based; conditions: 48 h
Description: Furthermore, cultured astrocytes were treated with phorbol-12-myristate-13-acetate (PMA) and Lipopolysaccharides (LPS) alone or with test molecule for 48 h to measure ROS levels. To evaluate the effect on inflammation markers, astrocytes were treated with PMA and test molecule for 48 h.

hRXR α, β, or γ = assay: Transactivation assay (RARE-Luc dual luciferase reporter in HEK-293 cells), activity relative to LG268; type: cell-based, human; conditions: 24 h, luciferase activity expressed relative to LG268
Outline: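 HEK-293 cells co-transfected with hRXR α, β or γ expression vector, RARE-firefly luciferase and renilla luciferase; 24 h later treated with agonist (100 nM, 300 nM, 1 uM) for 24 h. Firefly signal normalized to renilla; activity expressed relative to the RXR agonist LG268.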

CC1(C)CCC(C)(C)c2sc(N(CC3CC3)c3ccc(C(=O)O)cn3)nc21 [Compound 40, 6-[(Cyclopropylmethyl) (4,4,7,7-tetramethyl-4,5,6,7-tetrahydro-1,3-benzothiazol-2-yl)amino]pyridine-3-carboxylic acid]
ROS levels (MIA PaCa-2 cells [1]): significant augmentation of stress levels | cell growth (cell count) (MIA PaCa-2 cells [2]): significant reduction in cell growth | LDL-c (male Syrian Hamsters): significant reduction | Non-HDL cholesterol (male Syrian Hamsters): significant reduction | total cholesterol (male Syrian Hamsters): significant reduction | CRP levels (male ZDF rats): decreasing CRP levels | HbAlc levels (male ZDF rats): very significant improvement | activity of SDH (glucose oxidation in muscle) (male ZDF rats): significantly increased the activity of SDH | fasting TG levels (male ZDF rats): significantly reduces fasting TG levels | fasting glucose (male ZDF rats): significant control of Fasting glucose | glucose disposal (male ZDF rats): improves glucose disposal | hyperinsulinemia (insulin levels) (male ZDF rats): significantly reduced hyperinsulinemia | levels of biomarkers of Cardio vascular risk (male ZDF rats): improvement in levels of biomarkers of Cardio vascular risk | prandial hyperglycemia (fed glucose) (male ZDF rats): both an early onset and sustained control of prandial hyperglycemia | Cardiac function (male ZDF rats; Millar MPVS hemodynamic measurement): Substantial improvement | BUN levels (male ZDF rats; end of 22 weeks): Substantial decrease | Serum Creatinine levels (male ZDF rats; end of 22 weeks): Substantial decrease | hypertriglyceridemia (male ZDF rats; fasting TG during treatment and there after): does not cause hypertriglyceridemia | Nerve conduction velocity (NCV) (male ZDF rats; sciatic nerve): Significant improvement | oxidative stress (ROS levels) (astrocytes; PMA and LPS): reduce both oxidative stress | inflammation (IL6 secretion and expression, expression of IL1b, COX2 and MCP1) (astrocytes; PMA): reduce inflammation | Activity at 300 nM (hRXR α, β, or γ; compound at 300 nM): ***** (>0.6) | Activity at 1 µM (hRXR α, β, or γ; compound at 1 µM): **** (>0.9 to <1)
